How the values were obtained:
[1] = Stability of DH in rat plasma samples (autosampler, −80 °C storage, room temperature, freeze–thaw); format: in vitro ADME; settings: for Accuracy, 4 h / Accuracy, 8 h / Accuracy, 12 h: autosampler; for Accuracy, Room temper: room temperature; for Accuracy, 1 day / Accuracy, 7 days / Accuracy, 15 days: stored at −80 °C; for Accuracy, Thaw: three freeze–thaw cycles
Description: Three concentrations were used to test the stability of plasma samples in a variety of circumstances. […] Its accuracy range was 97.46–109.44%. When samples were stored at −80 °C, the accuracy of the samples ranged from 99.44% to 109.22% at three concentrations on days 1, 7, and 15. The prepared QC samples were placed in the autosampler and injected at 4, 8, and 12 h. The accuracy was calculated to be in the range of 103.34–110.57%. The prepared stability samples were stored at −80 °C and the accuracy range was measured from 97.37% to 104.56% after three sequential freeze–thaw cycles.
DH was added to the blank plasma to produce concentrations of 1, 10, 100, and 500 ng/mL QC samples. Then, 10 µL DH was added to blank plasma and vortexed for 3 s. Next, 10 µL IS was added to the plasma and vortexed for 3 s, while 300 µL of acetonitrile was added to the above plasma, vortexed for 1 min, and centrifuged for 7 min. The mixture supernatant was collected and blown dry at 40 °C under nitrogen. Blow-dried samples were re-dissolved in 100 μL of 30% acetonitrile in water and centrifuged for 7 min.
(§1) Although acetonitrile precipitates most of the protein, plasma samples contain phospholipids, metabolites, etc., that interfere with the detection of DH and IS. Specificity was mainly examined at DH and IS retention times without interference peaks in blank plasma. In addition, samples tested after administration should not show interfering peaks at the DH and IS peak times. The standard curves were made up of 8 nonzero analyte points, and the linearity was tested. The correlation of peak area (analyte/IS) with the labeled plasma concentration was plotted for regression analysis. This analyte was predicted to have a correlation coefficient (r^2) of more than 0.99 with the corresponding standard curve. The relative standard deviation (RSD) and relative error (RE) values were calculated by measuring six repeated QC samples on the same day to evaluate the intra-day precision and accuracy. Inter-day precision and accuracy were characterized by RSD and RE, respectively. The recoveries were determined by examining the ratio of the peak areas of DH before and after extraction. The matrix effect is the ratio of the peak area of DH added to plasma and DH dissolved in the solvent. The stability evaluation should guarantee that the concentration of the analyte remains unchanged throughout the sample preparation and analysis process, as well as during storage. Stability studies include long-term storage stability at −80 °C (1, 7 and 15 days); repeated freeze–thaw stability; autosampler stability; room temperature stability; and long-term storage stability of stock solutions.

[2] = Long-term storage stability of DH stock solutions; format: physicochemical
Description: as §1

[3] = system: Sarcoplasmic reticulum RyR2Ca^2+ channels; set-up: method as in doi:10.13005/bpj/1892; settings: cited from earlier work
[4] = nominal concentration 100 ng/mL
[5] = nominal concentration 500 ng/mL

COc1cc2c(cc1OC)C(c1ccc(N(C)C)cc1)NCC2 (centres unmarked) [DH, N, N-dimethylaniline-heliamine]
Accuracy, 4 h ([1]; nominal concentration 10 ng/mL): 110.30%
Accuracy, 8 h ([1]; nominal concentration 10 ng/mL): 108.80%
Accuracy, 12 h ([1]; nominal concentration 10 ng/mL): 110.57%
Accuracy, 4 h [1, 4]: 106.65%
Accuracy, 8 h [1, 4]: 106.69%
Accuracy, 12 h [1, 4]: 103.81%
Accuracy, 4 h [1, 5]: 105.03%
Accuracy, 8 h [1, 5]: 103.54%
Accuracy, 12 h [1, 5]: 103.34%
time stable in rat plasma samples ([1]; kept at room temperature): at least 12 h
Accuracy, Room temper ([1]; nominal concentration 10 ng/mL): 109.44%
Accuracy, Room temper [1, 4]: 101.36%
Accuracy, Room temper [1, 5]: 97.46%
Accuracy, 1 day ([1]; nominal concentration 10 ng/mL): 109.12%
Accuracy, 7 days ([1]; nominal concentration 10 ng/mL): 108.43%
Accuracy, 15 days ([1]; nominal concentration 10 ng/mL): 106.68%
Accuracy, 1 day [1, 4]: 103.58%
Accuracy, 7 days [1, 4]: 106.23%
Accuracy, 15 days [1, 4]: 101.13%
Accuracy, 1 day [1, 5]: 99.17%
Accuracy, 7 days [1, 5]: 105.59%
Accuracy, 15 days [1, 5]: 94.99%
Accuracy, Thaw ([1]; nominal concentration 10 ng/mL): 100.00%
Accuracy, Thaw [1, 4]: 104.56%
Accuracy, Thaw [1, 5]: 97.37%
Accuracy, Stock solution ([2]; nominal concentration 10 ng/mL): 104.96%
Accuracy, Stock solution [2, 4]: 99.49%
Accuracy, Stock solution [2, 5]: 96.24%
inhibition of sarcoplasmic reticulum RyR2 Ca2+ channels [3]: inhibited

From PMC11434354, “Metabolic and Pharmacokinetic Profiling Studies of N, N-Dimethylaniline-Heliamine in Rats by UHPLC-Q-Orbitrap MS/MS” (Molecules, 2024)
